A word on the pIC50: it is the negative decadic logarithm of the IC50, by convention in mol/L. Broadly, the solubility is the dissolved amount per volume that the medium holds. Broadly, the microsomal CLint is the capacity of the preparation to metabolise the compound, expressed as a volume cleared per time. A low value points to slow turnover.

These results are taken from patent US20240336642A1 (The General Hospital Corporation, priority 2021, published 2024).

SMILES strings stand for the structures. pIC50: −log10 of the molar value. Counter-ions that a name gives are not always drawn.

One data set addresses h12/15-LOX (Homo sapiens (Human), UniProt P16050). Briefly: 12/15-LOX enzyme inhibition IC50 assay (Examples 1 and 2). The class given is biochemical. To be noted: for Emax: read-out: Max % inhibition. On the procedure:
Enzyme was then added to the cuvettes. […] The % inhibition for each test compound concentration were calculated as follows: […]

A short description of data set [1]: Solubility in formulation vehicles (Solutol HS-15/PEG400, Captisol). As to conditions: for solubility: aqueous with cosolvent or surfactant or cyclodextrin; for solution concentration achieved: 10% Solutol/90% PEG400. It counts as physicochemical. As for the experimental part: Combinations of Solutol HS-15 (also known as Kolliphor HS-15) with PEG400 provided a good vehicle to solubilize the tested compounds. Specifically, 10% Solutol/90% PEG400 was used to prepare 20 mg/ml solutions of compound 1, compound 44, and compound 32. 10% Solutol/15% H2O/[…] led to 10 mg/ml solutions of the tested compounds.
(§1) 20 mg/ml were obtained in 20% Captisol, allowing for intravenous delivery in the mouse stroke model.

A short description of data set [2]: In vivo conversion of prodrug to parent compound. As for the experimental part:
FIG. 1 contains chemical schemes showing in vivo conversion of prodrug compounds 51, 52, 53 to their parent compounds 22, 1, and 1, respectively.
as §1

Data set [3] relates to experimental stroke model in mice (MCAO). Briefly: Mouse stroke model, filament middle cerebral artery occlusion (MCAO), infarct size. It counts as in vivo. On the procedure:
Studies were carried out in experimental stroke model in mice, using the filament model of middle cerebral artery occlusion (MCAO). For intraperitoneal delivery, compounds were dissolved in DMSO. A number of exemplified compounds were able to reduce infarct size when given at a dosage of 40 mg/kg.
40 mg/kg cmpd. 1 were given i.p. at time of reperfusion. Infarct size was measured at 24 hours after 60 minutes MCAO.
MCAO (Experimental Middle Cerebral Artery Ischemia and Functional Recovery) experiment: 40 mg/kg of compound delivered intraperitoneally 2 h post reperfusion, 60 minutes MCAO, sacrifice at 24 h, infarct size determined by TTC staining.

Data set [4] in a line: Aqueous solubility of exemplified compounds (Example 3). As to conditions: for Sol: aqueous solubility. It counts as physicochemical.
Data set [5] can be described thus: Metabolic stability of exemplified compounds (Example 4). It counts as in vitro ADME.
Data set [6] is described as follows: Hydrolysis of prodrug in plasma. It counts as in vitro ADME. As for the experimental part:
as §1

Sequence of h12/15-LOX (P16050 whole entry): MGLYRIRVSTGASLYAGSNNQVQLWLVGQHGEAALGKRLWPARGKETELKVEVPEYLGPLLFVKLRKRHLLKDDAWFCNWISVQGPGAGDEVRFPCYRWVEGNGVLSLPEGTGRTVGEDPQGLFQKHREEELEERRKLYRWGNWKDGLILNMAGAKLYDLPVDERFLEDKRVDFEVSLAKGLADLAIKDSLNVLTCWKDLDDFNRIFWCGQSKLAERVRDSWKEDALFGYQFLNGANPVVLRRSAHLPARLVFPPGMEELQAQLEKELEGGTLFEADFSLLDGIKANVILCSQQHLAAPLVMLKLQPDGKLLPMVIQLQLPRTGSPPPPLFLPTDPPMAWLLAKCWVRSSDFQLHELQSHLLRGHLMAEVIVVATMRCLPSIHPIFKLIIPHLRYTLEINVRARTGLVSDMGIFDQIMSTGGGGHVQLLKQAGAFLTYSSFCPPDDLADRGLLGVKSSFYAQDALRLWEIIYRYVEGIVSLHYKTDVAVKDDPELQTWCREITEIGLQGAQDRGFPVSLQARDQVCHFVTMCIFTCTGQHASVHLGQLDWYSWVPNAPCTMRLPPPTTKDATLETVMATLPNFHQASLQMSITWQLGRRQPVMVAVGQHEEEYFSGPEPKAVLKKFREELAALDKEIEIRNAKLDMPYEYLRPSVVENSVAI

At h12/15-LOX, `CN(C)CCCOC(=O)N(C)c1oc(-c2cc(Cl)cc(Cl)c2Cl)nc1C#N` [Compound 52, 3-(dimethylamino) propyl (4-cyano-2-(2,3,5-trichlorophenyl)oxazol-5-yl)(methyl) carbamate hydrochloride] gave a pIC50 of 5.85. The solubility is 20 mg/mL in data set [1] (20% Captisol) and 27 mg/mL in data set [1] (50% Captisol solution). Moreover, the “in vivo processing of prodrug” value in data set [2] is reported as “processed to the parent molecule, compound 1”. Also, the infarct size reduction is listed as 31.7% in data set [3] (40 mg/kg i.v. in 50% Captisol, immediately after reperfusion, 24 h, hydrochloride) and 31.7% in data set [3] (40 mg/kg i.v. in 50% Captisol, immediately after reperfusion, 24 h, listed as Cmpd. 52, hydrochloride).
On h12/15-LOX, `[2H]C([2H])([2H])Nc1oc(-c2cc(Cl)cc(Cl)c2Cl)nc1C#N` [Compound 44, 5-((methyl-d3)amino)-2-(2,3,5-trichlorophenyl) oxazole-4-carbonitrile] showed a negative-log IC50 (pIC50) of 7.05. Further, on h12/15-LOX (h12/15-LOX), the Emax stood at 91%. In data set [1], the solution concentration achieved stood at 20 mg/mL. In data set [3] (40 mg/kg intraperitoneally 2 h post reperfusion, 60 minutes MCAO, sacrifice at 24 h, TTC staining), the infarct size reduction came out at 29.6%.
Compound `COCCOCCNc1oc(-c2cc(Cl)cc(Cl)c2Cl)nc1C#N` [Compound 32, 5-((2-(2-Methoxyethoxy)ethyl)amino)-2-(2,3,5-trichlorophenyl) oxazole-4-carbonitrile] had a pIC50 at h12/15-LOX of 6.21. Also, the Emax at h12/15-LOX (h12/15-LOX) came out at 96%. In data set [4], the Sol result is “++ (“++” 10-20 μM)”. For the same compound, the “Extr (EH)” value in data set [5] (Human liver microsomes), in data set [5] (Mouse liver microsomes) and in data set [5] (Rat liver microsomes) was “* (“*” <50%)” throughout. The microsomal CLint in data set [5] (Human liver microsomes), in data set [5] (Mouse liver microsomes) and in data set [5] (Rat liver microsomes) was less than 20 µL/min/mg in each case. Besides, the solution concentration achieved in data set [1] is 20 mg/mL. The infarct size reduction in data set [3] (40 mg/kg intraperitoneally 2 h post reperfusion, 60 minutes MCAO, sacrifice at 24 h, TTC staining, listed as Cmpd. 32) is recorded as 31.8%; in data set [3] (40 mg/kg intraperitoneally 2 h post reperfusion, 60 minutes MCAO, sacrifice at 24 h, TTC staining, listed as compound 32) it was 31.8%.
Take `N#Cc1nc(-c2cc(Cl)cc(Cl)c2Cl)oc1NCCCCCOP(=O)(O)O` [Compound 51, 5-((4-cyano-2-(2,3,5-trichlorophenyl)oxazol-5-yl)amino) pentyl dihydrogen phosphate]: on h12/15-LOX, the pIC50 was less than 4.70. In addition, in data set [4], the “aqueous solubility versus parent compound” value is “high aqueous solubility versus parent compound 22”. Besides, the hydrolysis in plasma result in data set [6] was “susceptible to hydrolysis in plasma”.
On to `COCCOCCCCNc1oc(-c2cc(Cl)cc(Cl)c2Cl)nc1C#N` [Compound 48, 5-((4-(2-Methoxyethoxy)butyl)amino)-2-(2,3,5-trichlorophenyl)oxazole-4-carbonitrile], for which, at h12/15-LOX, the pIC50 is 6.21. The compound also came in with a Max % inhibition at h12/15-LOX (h12/15-LOX) of 100%. In addition, the Sol entry in data set [4] is recorded as “+ (“+” < 10 μM)”. Besides, the CLint entry in data set [5] (Human liver microsomes) was “++ (“++” 20-100 μL/min/mg)”; in data set [5] (Mouse liver microsomes), “+++ (“+++” 100-200 μL/min/mg)”; in data set [5] (Rat liver microsomes) it was “++ (“++” 20-100 μL/min/mg)”. Further, the “Extr (EH)” value in data set [5] (Human liver microsomes), in data set [5] (Mouse liver microsomes) and in data set [5] (Rat liver microsomes) was “** (“**” 50-100%)” throughout.
On h12/15-LOX, `N#Cc1nc(-c2cc(Cl)cc(Cl)c2Cl)oc1NCCOCCO` [Compound 28, 5-((2-(2-Hydroxyethoxy)ethyl)amino)-2-(2,3,5-trichlorophenyl)oxazole-4-carbonitrile] had a negative-log IC50 (pIC50) of 5.82. Moreover, the Emax at h12/15-LOX (h12/15-LOX) is 87%. For the same compound, the Sol entry in data set [4] is “+++ (“+++” 20-50 μM)”. The “Extr (EH)” value in data set [5] (Human liver microsomes) is listed as “** (“**” 50-100%)”; in data set [5] (Mouse liver microsomes), “* (“*” <50%)”; in data set [5] (Rat liver microsomes), “* (“*” <50%)”. The microsomal CLint was 20 to 100 µL/min/mg in data set [5] (Human liver microsomes), 20 to 100 µL/min/mg in data set [5] (Mouse liver microsomes) and less than 20 µL/min/mg in data set [5] (Rat liver microsomes).
